Test results reported in Sander's compilation of Henry's law constants (doi:10.1021/je700418a).

Assay: Henry solubility constant Hcp at 298.15 K (mol/(m3 Pa))
Settings: reference: Helburn et al. (2008)

SMILES	Henry solubility constant Hcp
CC(C)C12CCC(C)(CC1)O2 [1-methyl-4-(1-methylethyl)-7-oxabicyclo[2.2.1]heptane]	0.039
CC(C)O [2-propanol]	0.68
CC(C)=CCCC(C)=CC#N [3,7-dimethyl-2,6-octadienenitrile]	0.029
C=C(C)[C@H]1CC=C(C)CC1 [(R)-1-methyl-4-(1-methylethenyl)-cyclohexene]	0.00026
CCCCOC(C)=O [butyl ethanoate]	0.021
C1CCCCC1 [cyclohexane]	8e-05
CCCCCCCCCC=O [decanal]	0.0043
ClCCl [dichloromethane]	0.0032
CCOCC [diethyl ether]	0.095
Cc1ccccc1 [methylbenzene]	0.0014
ClC=C(Cl)Cl [trichloroethene]	0.00094
